Assay results published in the supplement of paper PMC10307832.

Assays:
Assay in all cases: relative viability (nuclei count vs DMSO), 5 days (fraction); higher = more cells survive
NCI-H2347 = system: NCI-H2347
Procedure, shortened: (§1)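 Lung cancer cell lines were pin-tool dosed in 1536-well plates on the day after seeding, with either a lone drug or a fixed anchor-drug dose plus five library-drug doses (not always all listed) in √10 steps. Nuclei were counted on 4× images after 5 days. Relative viability is the ratio of treated-well to vehicle-well nuclei counts, with each value a median of duplicate plates.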

SW 1573 = system: SW 1573
Procedure, shortened: as §1

NCI-H647 = system: NCI-H647
Procedure, shortened: as §1

NCI-H322M = system: NCI-H322M
Procedure, shortened: as §1

NCI-H727 = system: NCI-H727
Procedure, shortened: as §1

NCI-H522 = system: NCI-H522
Procedure, shortened: as §1

NCI-H1915 = system: NCI-H1915
Procedure, shortened: as §1

NCI-H358 = system: NCI-H358
Procedure, shortened: as §1

EPLC-272H = system: EPLC-272H
Procedure, shortened: as §1

LXF-289 = system: LXF-289
Procedure, shortened: as §1

SK-MES-1 = system: SK-MES-1
Procedure, shortened: as §1

LU99A = system: LU99A
Procedure, shortened: as §1

NCI-H1437 = system: NCI-H1437
Procedure, shortened: as §1

NCI-H650 = system: NCI-H650
Procedure, shortened: as §1

NCI-H1666 = system: NCI-H1666
Procedure, shortened: as §1

BEN = system: BEN
Procedure, shortened: as §1

NCI-H441 = system: NCI-H441
Procedure, shortened: as §1

NCI-H23 = system: NCI-H23
Procedure, shortened: as §1

NCI-H2170 = system: NCI-H2170
Procedure, shortened: as §1

HOP-62 = system: HOP-62
Procedure, shortened: as §1

NCI-H2228 = system: NCI-H2228
Procedure, shortened: as §1

NCI-H2342 = system: NCI-H2342
Procedure, shortened: as §1

HCC-827 = system: HCC-827
Procedure, shortened: as §1

C=C1C(=O)O[C@@H](CCCCCCCC)[C@@H]1C(=O)O [C-75] + O=C(c1cc(Cc2n[nH]c(=O)c3ccccc23)ccc1F)N1CCN(C(=O)C2CC2)CC1 [Olaparib] (partner 8 µM) showed a relative viability (NCI-H2347; first compound 0.08 µM) of 0.552, a relative viability (NCI-H2347; first compound 0.253 µM) of 0.514 and a relative viability (NCI-H2347; first compound 0.8 µM) of 0.532. For the same compound, the relative viability (NCI-H2347; first compound 2.53 µM) was 0.539, the relative viability (NCI-H2347; first compound 8 µM) was 0.614 and the relative viability (SW 1573; first compound 0.08 µM) was 0.485. It also gave a relative viability (SW 1573; first compound 0.253 µM) of 0.547, a relative viability (SW 1573; first compound 0.8 µM) of 0.505 and a relative viability (SW 1573; first compound 2.53 µM) of 0.309. For the same compound, the relative viability (SW 1573; first compound 8 µM) was 0.224, the relative viability (NCI-H647; first compound 0.08 µM) was 0.522 and the relative viability (NCI-H647; first compound 0.253 µM) was 0.727. The relative viability (NCI-H647; first compound 0.8 µM) was 0.452, the relative viability (NCI-H647; first compound 2.53 µM) was 0.495 and the relative viability (NCI-H647; first compound 8 µM) was 0.354. For the same compound, the relative viability (NCI-H322M; first compound 0.08 µM) was 0.764, the relative viability (NCI-H322M; first compound 0.253 µM) was 0.965 and the relative viability (NCI-H322M; first compound 0.8 µM) was 0.754. It also gave a relative viability (NCI-H322M; first compound 8 µM) of 0.764, a relative viability (NCI-H727; first compound 0.08 µM) of 0.69 and a relative viability (NCI-H727; first compound 0.253 µM) of 0.865. It also gave a relative viability (NCI-H727; first compound 0.8 µM) of 0.671, a relative viability (NCI-H727; first compound 2.53 µM) of 0.371 and a relative viability (NCI-H727; first compound 8 µM) of 0.636. It also gave a relative viability (NCI-H522; first compound 0.08 µM) of 0.592, a relative viability (NCI-H522; first compound 0.253 µM) of 0.733 and a relative viability (NCI-H522; first compound 0.8 µM) of 0.662. The relative viability (NCI-H522; first compound 2.53 µM) was 0.66, the relative viability (NCI-H522; first compound 8 µM) was 0.547 and the relative viability (NCI-H1915; first compound 0.08 µM) was 0.243. It also gave a relative viability (NCI-H1915; first compound 0.253 µM) of 0.242, a relative viability (NCI-H1915; first compound 0.8 µM) of 0.261 and a relative viability (NCI-H1915; first compound 2.53 µM) of 0.262. The relative viability (NCI-H1915; first compound 8 µM) was 0.257, the relative viability (NCI-H358; first compound 0.08 µM) was 0.642 and the relative viability (NCI-H358; first compound 0.253 µM) was 0.623. For the same compound, the relative viability (NCI-H358; first compound 0.8 µM) was 0.534, the relative viability (NCI-H358; first compound 8 µM) was 0.575 and the relative viability (EPLC-272H; first compound 0.08 µM) was 0.874. The relative viability (EPLC-272H; first compound 0.253 µM) was 0.878, the relative viability (EPLC-272H; first compound 0.8 µM) was 0.702 and the relative viability (EPLC-272H; first compound 2.53 µM) was 0.701. The relative viability (EPLC-272H; first compound 8 µM) was 0.436, the relative viability (LXF-289; first compound 0.08 µM) was 1.05 and the relative viability (LXF-289; first compound 0.253 µM) was 1.11. For the same compound, the relative viability (LXF-289; first compound 0.8 µM) was 1.01, the relative viability (LXF-289; first compound 2.53 µM) was 0.992 and the relative viability (LXF-289; first compound 8 µM) was 1.06. It also gave a relative viability (SK-MES-1; first compound 0.08 µM) of 0.78, a relative viability (SK-MES-1; first compound 0.253 µM) of 0.772 and a relative viability (SK-MES-1; first compound 0.8 µM) of 0.724. The relative viability (SK-MES-1; first compound 2.53 µM) was 0.638, the relative viability (SK-MES-1; first compound 8 µM) was 0.64 and the relative viability (LU99A; first compound 0.08 µM) was 0.255. The relative viability (LU99A; first compound 0.253 µM) was 0.245, the relative viability (LU99A; first compound 0.8 µM) was 0.25 and the relative viability (LU99A; first compound 2.53 µM) was 0.245. For the same compound, the relative viability (LU99A; first compound 8 µM) was 0.205, the relative viability (NCI-H1437; first compound 0.08 µM) was 0.614 and the relative viability (NCI-H1437; first compound 0.253 µM) was 0.684. For the same compound, the relative viability (NCI-H1437; first compound 0.8 µM) was 0.642, the relative viability (NCI-H1437; first compound 8 µM) was 0.648 and the relative viability (NCI-H650; first compound 0.08 µM) was 0.397. It also gave a relative viability (NCI-H650; first compound 0.253 µM) of 0.438, a relative viability (NCI-H650; first compound 0.8 µM) of 0.457 and a relative viability (NCI-H650; first compound 2.53 µM) of 0.397. The relative viability (NCI-H650; first compound 8 µM) was 0.4, the relative viability (NCI-H1666; first compound 0.08 µM) was 0.681 and the relative viability (NCI-H1666; first compound 0.253 µM) was 0.79. The relative viability (NCI-H1666; first compound 0.8 µM) was 0.678, the relative viability (NCI-H1666; first compound 8 µM) was 0.653 and the relative viability (BEN; first compound 0.08 µM) was 1.22. The relative viability (BEN; first compound 0.253 µM) was 1.07, the relative viability (BEN; first compound 0.8 µM) was 1.04 and the relative viability (BEN; first compound 2.53 µM) was 0.771. For the same compound, the relative viability (BEN; first compound 8 µM) was 0.914, the relative viability (NCI-H441; first compound 0.08 µM) was 0.487 and the relative viability (NCI-H441; first compound 0.253 µM) was 0.391. The relative viability (NCI-H441; first compound 0.8 µM) was 0.528, the relative viability (NCI-H441; first compound 8 µM) was 0.486 and the relative viability (NCI-H23; first compound 0.08 µM) was 0.364. It also gave a relative viability (NCI-H23; first compound 0.253 µM) of 0.334, a relative viability (NCI-H23; first compound 0.8 µM) of 0.239 and a relative viability (NCI-H23; first compound 2.53 µM) of 0.555. It also gave a relative viability (NCI-H23; first compound 8 µM) of 0.24, a relative viability (NCI-H2170; first compound 0.08 µM) of 0.594 and a relative viability (NCI-H2170; first compound 0.253 µM) of 0.633. The relative viability (NCI-H2170; first compound 0.8 µM) was 0.541, the relative viability (NCI-H2170; first compound 2.53 µM) was 0.647 and the relative viability (NCI-H2170; first compound 8 µM) was 0.627. For the same compound, the relative viability (HOP-62; first compound 0.08 µM) was 0.532, the relative viability (HOP-62; first compound 0.253 µM) was 0.5 and the relative viability (HOP-62; first compound 0.8 µM) was 0.321. The relative viability (HOP-62; first compound 2.53 µM) was 0.372, the relative viability (HOP-62; first compound 8 µM) was 0.393 and the relative viability (NCI-H2228; first compound 0.08 µM) was 0.709. The relative viability (NCI-H2228; first compound 0.253 µM) was 0.897, the relative viability (NCI-H2228; first compound 0.8 µM) was 0.494 and the relative viability (NCI-H2228; first compound 2.53 µM) was 0.543. For the same compound, the relative viability (NCI-H2228; first compound 8 µM) was 0.414, the relative viability (NCI-H2342; first compound 0.08 µM) was 0.503 and the relative viability (NCI-H2342; first compound 0.253 µM) was 0.49. For the same compound, the relative viability (NCI-H2342; first compound 0.8 µM) was 0.374, the relative viability (NCI-H2342; first compound 2.53 µM) was 0.38 and the relative viability (NCI-H2342; first compound 8 µM) was 0.454. It also gave a relative viability (HCC-827; first compound 0.253 µM) of 0.622, a relative viability (HCC-827; first compound 0.8 µM) of 0.595 and a relative viability (HCC-827; first compound 8 µM) of 0.657.
